Measured values taken from PMC10977697 (PLOS ONE, 2024).
Bridges are numbered along the chain shown (N, C = ends). Where no end group is shown, it is not given here.

Assays:
[1] = tested on: PCSK9; format: binding, human; settings: for S/N: spot phage ELISA signal-to-noise on PCSK9
[2] = tested on: CD16A; assay: Spot phage ELISA, CD16A; format: binding, human; settings: spot phage ELISA signal-to-noise on CD16A

Substance | S/N [1] | S/N [2] | other results
GPTQSEYGMCGGIGYSGPTVCASGTTCQVLDPMTSQCLPGAS (disulfide (positions not given here)) [PCSK9 CBD 3] | 2.6 |  | 
GPTQSNYGMCGGIGYSGPTVCASGTTCQVLqPSTSRCLPGAS (disulfide) [PCSK9 CBD 16] | 11.6 |  | 
GPTQSTYGQCGGIGYSGPTVCASGTTCQVLWPALSWCLPGAS (disulfide (positions not given here)) [PCSK9 CBD 22] | 15.0 |  | 
GPAHSLFGMCGGIDYSGPTVCASGTTCHVLNPTTSHCLPRAS (disulfide (positions not given here)) [PCSK9 CBD 8] | 5.0 |  | 
GCGYWFKMWFCKQDSDCLAGCVCYPGASCG (disulfide (positions not given here)) [PCSK9 EET I-II 12] | 15.5 |  | 
GCGYWWVQWFCKQDSDCLAGCVCGPNGFCD (disulfide (positions not given here)) [PCSK9 EET I-II 18] | 20.1 |  | 
GCNLGYWWKQWFCKQDSDCLAGCVCERPRDCG (disulfide (positions not given here)) [PCSK9 EET I-II 2] | 6.1 |  | 
GPTQSVYGMCGGIGYSGPTVCASGTTCQVLDPTTSQCLPGAS (disulfide (positions not given here)) [PCSK9 CBD 25] | 14.9 |  | 
GPTQSAYGQCGGIGYSGPTVCASGTTCQVLWPQVSWCLPGAS (disulfide (positions not given here)) [PCSK9 CBD 23] | 13.9 |  | 
GCGYWWVQWFCKQDSDCLAGCVCGPNGFCD (disulfide (positions not given here)) [PCSK9 EET I-II 11] | 19.1 |  | 
GPTQSKYGMCGGIGYSGPTVCASGTTCQVLDPYTSQCLPGAS (disulfide (positions not given here)) [PCSK9 CBD 14] | 8.8 |  | 
GPTQSVHGMCGGIGYSGPTVCASGTTCQVLDPFTSQCLPGAS (disulfide (positions not given here)) [PCSK9 CBD 24] | 14.8 |  | 
GCQVDPWGHQMDCKQDSDCLAGCVCGPNGFC (disulfide (positions not given here)) [CD16A EETI-II 32] |  | 22.9 | 
GPTHSTYGQCGGIGYSGQSVCASGTTCQVLWAALSWCLPGAS (disulfide (positions not given here)) [PCSK9 CBD 12] | 7.8 |  | 
GPTQSNYGMCGGIGYSGPTVCASGTTCQVLYPTTSRCLPGAS (disulfide (positions not given here)) [PCSK9 CBD 1] | 17.7 |  | 
GCGYWWKHWFCKQDSDCLAGCVCGPNGFCG (disulfide (positions not given here)) [PCSK9 EET I-II 10] | 12.1 |  | 
GCWGPWGPEHCKQDSDCLAGCVCGPNGFCG (disulfide (positions not given here)) [CD16A EETI-II 26] |  | 18.3 | 
GPTQSTCGQCGGIGYSGPTVCASGTTCQVLWPTLSWCLPGAS (disulfide (positions not given here)) [PCSK9 CBD 27] | 20.8 |  | 
GPTQSHYGLCGGIGYSGPTVCASGTTCQVLSPEFSQCLPGAS (disulfide (positions not given here)) [PCSK9 CBD 13] | 8.0 |  | 
GCQWHEMTCKQDSDCLAGCVCWESPWCG (disulfide (positions not given here)) [CD16A EETI-II 36] |  | 15.9 | 
GCDAILWTCKQDSDCLAGCVCSEEDLCG (disulfide (positions not given here)) [CD16A EETI-II 7] |  | 18.7 | 

Substance | S/N [1] | S/N [2] | other results
GCHEGYWWRQWFCKQDSDCLAGCVCGPNGFCG (disulfide (positions not given here)) [PCSK9 EET I-II 19] | 20.5 |  | 
GCQWAQLSWDHCKQDSDCLAGCVCWQSPYCG (disulfide (positions not given here)) [CD16A EETI-II 35] |  | 16.7 | 
GPTQSTYGQCGGIGYSGPTVCASGTTCQVLGPALSWCLPGAS (disulfide (positions not given here)) [PCSK9 CBD 9] | 5.2 |  | 
GPTQSHGGSCGGIGYSGPTVCASGTTCQVLNPYLSLCLPGAS (disulfide (positions not given here)) [CD16A CBD 3] |  | 17.5 | 
GPTQSWDGQCGGIGYSGPTVCASGTTCQVLSPYLSYCLPGAS (disulfide (positions not given here)) [CD16A CBD 6] |  | 15.7 | 
GPTQSTYGQCGGIGYSGPTVCASGTTCQVLWPALSWCLPGAS (disulfide (positions not given here)) [PCSK9 CBD 26] | 21.5 |  | 
GCDDILRACKQDSDCLAGCVCEEETLCG (disulfide (positions not given here)) [CD16A EETI-II 6] |  | 19.9 | 
GCGYWWSTWFCKQDSDCLAGCVCGPNGFCG (disulfide (positions not given here)) [PCSK9 EET I-II 4] | 15.0 |  | 
GCQYIETECKQDSDCLAGCVCWVSPWCG (disulfide (positions not given here)) [CD16A EETI-II 44] |  | 20.5 | 
GPTQSNYGQCGGIGYSGPTVCASGTTCQVLWPAMSWCLPGAS (disulfide (positions not given here)) [PCSK9 CBD 15] | 14.0 |  | 
GCDEMLYRCKQDSDCLAGCVCQEQDVCG (disulfide (positions not given here)) [CD16A EETI-II 5] |  | 20.0 | 
GPTQSLFGMCGGIGYSGPTVCASGTTCQVLYPTTSRCLPGAS (disulfide (positions not given here)) [PCSK9 CBD 20] | 18.0 |  | 
GCQDPWGEAMQCKQDSDCLAGCVCGPNGFCG (disulfide (positions not given here)) [CD16A EETI-II 15] |  | 25.7 | 
GCQWQVEECKQDSDCLAGCVCWHSPYCG (disulfide (positions not given here)) [CD16A EETI-II 41] |  | 18.8 | 
GPTQSKYGMCGGIGYSGPTVCASGTTCQVLDPYTSQCLPGAS (disulfide 10-27, 21-37 (inferred)) [PCSK9FL_CBD2] |  |  | s/n ratio ([1]; ratio of signal for target protein over BSA background): 26.8
GCDYKLWRCKQDSDCLAGCVCEESQVCG (disulfide (positions not given here)) [CD16A EETI-II 8] |  | 18.2 | 
GPTQSEYGMCGGIGYSGPTVCASGTTCQVLDPTTSQCLPGAS (disulfide (positions not given here)) [PCSK9 CBD 17] | 11.3 |  | 
GCDYKLWRCKQDSDCLAGCVCEESQVCG (disulfide (positions not given here)) [CD16A EETI-II 3] |  | 21.6 | 
GCDEILHKCKQDSDCLAGCVCDEQQLCG (disulfide (positions not given here)) [CD16A EETI-II 10] |  | 17.2 | 
GPTQSQFGMCGGIGYSGPTVCASGTTCQVLDPTTSQCLPGAS (disulfide (positions not given here)) [PCSK9 CBD 2] | 2.5 |  | 
GPTQSDYGMCGGIGYSGPTVCASGTTCQVLDPYTSQCLPGAS (disulfide (positions not given here)) [PCSK9 CBD 28] | 14.2 |  | 

Substance | S/N [1] | S/N [2] | other results
GPTQSNYGQCGGIGYSGPTVCASGTTCQVLqPAMSWCLPGAS (disulfide) [PCSK9 CBD 21] | 18.7 |  | 
GCQQGYWWWYWFCKQDSDCLAGCVCGPNGFCG (disulfide (positions not given here)) [PCSK9 EET I-II 13] | 26.0 |  | 
GPTQSVWGSCGGIGYSGPTVCASGTTCQVLNPYMSACLPGAS (disulfide (positions not given here)) [CD16A CBD 1] |  | 21.0 | 
GCDMPSWDNVWPCKQDSDCLAGCVCGPNGFC (disulfide (positions not given here)) [CD16A EETI-II 28] |  | 19.8 | 
GCMDTPWKGACKQDSDCLAGCVCGPNGFCG (disulfide (positions not given here)) [CD16A EETI-II 19] |  | 18.2 | 
GCGSKNGMNMCKQDSDCLAGCVCDPWGQCD (disulfide (positions not given here)) [CD16A EETI-II 31] |  | 15.5 | 
GCPRILMRCKQDSDCLAGYVCDPWGVCD (disulfide (positions not given here)) [CD16A EETI-II 30] |  | 23.2 | 
GPTQSMGGSCGGIGYSGPTVCASGTTCQVLDPYISMCLPGAS (disulfide (positions not given here)) [CD16A CBD 5] |  | 16.5 | 
GCQWDPWGVQMNCKQDSDCLAGCVCGPNGFC (disulfide (positions not given here)) [CD16A EETI-II 34] |  | 19.6 | 
GPTQSEGGQCGGIGYSGPTVCASGTTCQVLGPMWSFCLPGAS (disulfide (positions not given here)) [CD16A CBD 10] |  | 5.9 | 
GCAVDPWGKQMTCKQDSDCLAGCVCGPNGFC (disulfide (positions not given here)) [CD16A EETI-II 33] |  | 19.5 | 
GCPWWWVVSCKQDSDCLAGCVCYLQENCG (disulfide (positions not given here)) [CD16A EETI-II 43] |  | 16.5 | 
GCQWVQMTCKQDSDCLAGCVCWHSPWCG (disulfide (positions not given here)) [CD16A EETI-II 42] |  | 17.3 | 
GCADTPWKGKCKQDSDCLAGCVCGPNGFCG (disulfide (positions not given here)) [CD16A EETI-II 20] |  | 15.6 | 
GCIATVDHCKQDSDCLAGCVCEPFHVCG (disulfide (positions not given here)) [CD16A EETI-II 4] |  | 20.2 | 
GPTQSHYGQCGGLGYFGQWFCSGTTCQMMSPYGSQCLPGAST (disulfide (positions not given here)) [CD16A CBD 9] |  | 8.3 | 
GCWDPWGPMSCKQDSDCLAGCVCGPNGFCG (disulfide (positions not given here)) [CD16A EETI-II 18] |  | 12.9 | 
GCDDPWGGEMCKQDSDCLAGCVCGPNGFCG (disulfide (positions not given here)) [CD16A EETI-II 16] |  | 23.6 | 
GCDDPWGMAMPCKQDSDCLAGCVCGPNGFCG (disulfide (positions not given here)) [CD16A EETI-II 17] |  | 23.4 | 
GCAKDPWGQPMSCKQDSDCLAGCVCGPNGFC (disulfide (positions not given here)) [CD16A EETI-II 27] |  | 20.7 | 
